O=C(O)c1cc([N+](=O)[O-])ccc1O
solubility (mole fraction)
Details | 278.15 K | 283.15 K | 288.15 K | 293.15 K | 298.15 K | 303.15 K | 308.15 K | 313.15 K | 318.15 K | 323.15 K
in 1,4-dioxane | – | – | 0.105 | 0.112 | 0.12 | 0.129 | 0.137 | 0.147 | 0.158 | 0.168
in DMF | 0.0752 | 0.0819 | 0.0894 | 0.0993 | 0.111 | 0.126 | 0.143 | 0.161 | 0.181 | 0.204
in NMP | 0.105 | 0.111 | 0.119 | 0.13 | 0.141 | 0.156 | 0.17 | 0.187 | 0.204 | 0.223
in acetonitrile | 0.0327 | 0.0366 | 0.0416 | 0.0481 | 0.0553 | 0.0632 | 0.0724 | 0.0814 | 0.0908 | 0.102
in ethanol | 0.0281 | 0.0307 | 0.0338 | 0.0379 | 0.0429 | 0.0481 | 0.0541 | 0.0605 | 0.0675 | 0.0752
in ethyl acetate | 0.0202 | 0.0234 | 0.027 | 0.031 | 0.0355 | 0.0404 | 0.0455 | 0.0509 | 0.0566 | 0.063
in ethylene glycol | 0.00911 | 0.0116 | 0.0142 | 0.0164 | 0.0197 | 0.0233 | 0.0262 | 0.0308 | 0.035 | 0.0393
in isobutanol | 0.0125 | 0.0149 | 0.0179 | 0.0211 | 0.0252 | 0.0296 | 0.0343 | 0.0383 | 0.043 | 0.0495
in isopropanol | 0.0255 | 0.0286 | 0.0322 | 0.0367 | 0.0406 | 0.046 | 0.052 | 0.0575 | 0.0641 | 0.0728
in methanol | 0.0316 | 0.0345 | 0.038 | 0.0427 | 0.0479 | 0.0538 | 0.0596 | 0.0661 | 0.0728 | 0.0807
in n-butanol | 0.0173 | 0.0203 | 0.0237 | 0.0275 | 0.032 | 0.0368 | 0.0421 | 0.0474 | 0.0533 | 0.06
in n-propanol | 0.0232 | 0.0266 | 0.0302 | 0.0342 | 0.0387 | 0.0433 | 0.0488 | 0.0537 | 0.0597 | 0.0656
in water | 3.03e-05 | 3.95e-05 | 5.22e-05 | 6.76e-05 | 8.62e-05 | 0.000107 | 0.000133 | 0.000165 | 0.000202 | 0.000253

Reference: BigSolDB 2.1
